Data: patent US20250320496A1, “MODULATION OF ABCB11 GENE TRANSCRIPTION USING ANTISENSE OLIGONUCLEOTIDES TARGETING REGULATORY RNAS” (CAMP4 Therapeutics Corporation, priority 2022, published 2025)
Strand notation (5' to 3'): a small letter for the sugar, then the base; units joined by * are phosphorothioate-linked, units joined directly phosphodiester-linked; [ ] holds rarer units or linkages, { } end groups; capitals alone tell only the bases. e = 2'-O-(2-methoxyethyl) (MOE); {TEG} = Teg-GalNAc conjugate; [5mC] = 5-methylcytosine

Key:
human ABCB11 mRNA [1] = assay: Liver-humanized FRG knockout mice, human ABCB11 mRNA in liver by qPCR; assay type: in vivo
Procedure: (§1) In a first in vivo study, female liver-humanized FRG® (Fah^−/−; Rag2^−/−; Il2rg^−/−) knockout mice (Yecuris™) were used to assess the efficacy of the human ABCB11 regRNA-targeting ASOs CO-3986 and CO-4535 in the context of cholestasis. The mice were grouped evenly based on albumin and body weight.
A. First Study. Two groups of five mice were dosed with GalNAc3—CO-7378 (CO-3986 conjugated to GalNAc3) or GalNAc3—CO-7379 ([…]) respectively, control via subcutaneous (SC) injection on Days 0 and 7. One group of five mice was dosed with PBS control via SC injection on Days 0 and 7. […] The serum (two tubes for each animal, 15 μL and 25 μL, for each timepoint) was analyzed using LC-MS (Creative Proteomics) to assess bile acids and 7αC4 levels. The remaining samples collected were analyzed for total serum bile acid levels using a commercial kit. […]
(§2) Frozen liver pieces were pulverized on dry ice and RNA extracted using TRIzol™ reagent. cDNA was generated and analyzed using qPCR to detect ABCB11 mRNA levels and other genes of interest as described above. Serum 7αC4 levels were detected using LC-MS (Creative Proteomics). Total serum bile acids were measured using the Total Bile Acid Fluorometric Assay Kit (Cell BioLabs). Liver bile acids were measured using the Total Bile Acid Fluorometric Assay Kit.

bile acid efflux in PHHs = assay: In vitro biliary clearance assay (B-CLEAR) in PHHs, d8-TCA by LC-MS; assay type: cell-based, human
Procedure: The ACCULIVER™ Human Biliary Clearance Kit (also known as the B-CLEAR® assay; BioIVT) was used to assess bile acid efflux in PHHs after ASO treatment. On Day 0, 4×10^5 cells were plated in 24-well collagen-coated plates and QualGro medium containing […] matrix and ASO was added 4 hrs. later. On Day 2, medium was refreshed. On Day 3, cells from some wells were harvested for RNA analysis using 350 μl Buffer RLT lysis buffer, and lysates frozen at −80° C. for later RNA extraction. On Day 4, cells in the remaining wells had medium refreshed. On Day 6, the assay was performed according to the manufacturer's instructions. Briefly, cells were conditioned with Plus or Minus Buffers provided with the assay for 10 minutes, followed by addition of deuterium-labelled sodium taurocholate (d8-TCA) for 10 mins. Cells were washed 3 times, and frozen after the final wash. Analysis of d8-TCA was performed using liquid chromatography-mass spectrometry (LC-MS) (BioIVT). Calculations of bile acid clearance were made from the resulting LC-MS data according to the manufacturer's instructions.

human ABCB11 mRNA [2] = assay: ASO treatment of primary human hepatocytes (PHH), ABCB11 mRNA by RT-qPCR normalized to B2M; assay type: cell-based; parameters: ABCB11 mRNA, dose titration: unit of the concentration uncertain
How it was run: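 ABCB11 mRNA was quantified by Taqman RT-qPCR relative to B2M and expressed as fold over untreated cells. Cells were cryopreserved primary human hepatocytes given ASO in Matrigel-supplemented medium 4 h after plating, at 1.25, 2.5, 5 or 10 μM (5 μM for screening), and harvested after 72 hrs.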

bile acids = assay: Liver-humanized FRG knockout mice, liver and serum bile acids; assay type: in vivo, mouse
Procedure: as §1
A. First Study. Two groups of five mice were dosed with GalNAc3—CO-7378 (CO-3986 conjugated to GalNAc3) or GalNAc3—CO-7379 ([…]) respectively, control via subcutaneous (SC) injection on Days 0 and 7. One group of five mice was dosed with PBS control via SC injection on Days 0 and 7. A fourth group of five mice was treated with ursodeoxycholic acid (UDCA) via intraperitoneal (IP) injection on Days 14-21. […] On Day 21, the animals were euthanized for terminal harvest after fasting overnight and >350 μL of whole blood was processed to serum. 100 μL of whole blood was collected in the same manner as the previous bleeds, prior to euthanasia and final exsanguination. Harvested livers were perfused with cold PBS with the left lobe and remnant liver frozen separately after bile salt collection. A piece of the ileum tissue was removed and flushed with PBS and snap-frozen. The serum (two tubes for each animal, 15 μL and 25 μL, for each timepoint) was analyzed using LC-MS (Creative Proteomics) to assess bile acids and 7αC4 levels. The remaining samples collected were analyzed for total serum bile acid levels using a commercial kit.
(§3) B. Second Study. In a second in vivo study was conducted to assess the ability of CO-11202 (CO-12367 conjugated with GalNAc3). Mice were dosed with […] on Days 0 and 7 via SC injection. One group of five mice were dosed with PBS control via SC injection on Days 0 and 7. One group of five mice received 10 mg/kg of obeticholic acid (OCA) via oral gavage daily for 21 days. Fasting blood was collected from the mice on Days 0, 7, 14 and 21 (collection performed prior to any SC injections) and processed to serum to analyze bile acid levels. On Day 21, mice were euthanized and livers and ileum tissue harvested and processed as described above.
as §2

CYP7A1 mRNA = assay: ASO treatment of primary human hepatocytes (PHH), CYP7A1 mRNA by RT-qPCR normalized to B2M; assay type: cell-based
Procedure: Primary human hepatocytes (PHH) were thawed using Lonza Human Cryopreserved Hepatocyte Thawing Medium and plated in 96-well collagen-coated plates (5.5-6.0×10^4 cells per well). Four hours later, the media was replaced with sterile-filtered QualGro™ Hepatocyte Culture Medium (BioIVT) containing antibiotic supplement, 0.3 mg/ml Matrigel® matrix (Corning®), and ASO at the desired concentration (e.g., 1.25 μM, 2.5 μM, 5 μM, or 10 μM). […] Plates were frozen at-80° C. during cell lysis. After thawing, total RNA was isolated using the Qiagen RNEasy kit as instructed by manufacturer. cDNA (random-primed) was synthesized from 10 μl of RNA using the LifeTech High Capacity cDNA Reverse Transcription kit. 2 μl of cDNA was used for reverse transcription-quantitative PCR (RT-qPCR) analyses using standard Taqman” reagents from Applied Biosystems™ to measure ABCB11 and CYP7A1 gene expression. Gene expression data was normalized to the housekeeper gene, beta-2-microglobulin (B2M).
ASOs targeting ABCB11 regRNA enhance bile acid efflux in vitro. Levels of cholesterol 7 alpha-hydroxylase (CYP7A1) mRNA (or the enzymatic activity of its protein) can be used to track changes in bile acid synthesis in the liver since the CYP7A1 protein is the first and rate-limiting step in the conversion of cholesterol to bile acids (see, e.g., Chiang and Ferrel (2020) Liver Res. 4 (2): 47-63). […] Conversely, when bile acid levels reach high levels, this gene is actively down regulated. These changes are mediated by farnesoid X receptor (FXR), a sensor of bile acid levels, and the master regulator of intracellular bile acid concentrations. CYP7A1 mRNA can therefore be used as a surrogate for monitoring changes in hepatic bile acids in response to ASO treatment. Accordingly, an ASO that successfully increases ABCB11 expression would be expected to promote increased bile acid efflux, thus reducing bile acid levels in the cell. In a wild-type (non-disease) setting, this reduction promotes a compensatory increase in CYP7A1 to restore normal levels.

mouse Abcb11 mRNA = assay: Liver-humanized FRG knockout mice, mouse Abcb11 mRNA in liver; assay type: in vivo; conditions: second study, liver-humanized FRG knockout mice (FIG. 15A)
Procedure: as §3, §2

Row | Substance | human ABCB11 expression (human ABCB11 mRNA [1]; first study, SC on Days 0 and 7) | intracellular and extracellular bile acid levels (bile acid efflux in PHHs; 5 μM and 10 μM ASO, bile acid efflux assay (FIG. 7C)) | efflux of bile acids from the intracellular compartment to the bile cannuliculi (bile acid efflux in PHHs; B-CLEAR assay) | ABCB11 expression (duplicate wells, qRT-PCR) (human ABCB11 mRNA [2]; PHHs of the B-CLEAR experiment, dose response (FIG. 7A)) | upregulation of ABCB11 mRNA (human ABCB11 mRNA [2]; PHHs, Day 3, normalized to untreated PHHs) | ABCB11 mRNA, dose titration (human ABCB11 mRNA [2]; PHHs, CO-3986 and CO-4529 tested at 2.5 (unit uncertain), 5 μM, and 10 μM) | ABCB11 mRNA FC (5 μM ASO vs. UNT) (human ABCB11 mRNA [2]; primary human hepatocytes, 5 μM ASO, normalized to untreated PHHs (UNT)) | liver bile acid efflux (bile acids; first study, liver-humanized FRG knockout mice) | ratio of liver bile acid (BA) to serum BA (bile acids; first study, liver-humanized FRG knockout mice (FIG. 9B)) | intracellular bile acids (bile acids; first study, liver-humanized FRG knockout mice, ASO-treated mice) | expression of CYP7A1 mRNA, dose response (CYP7A1 mRNA; PHHs (FIG. 3B)) | CYP7A1 expression (CYP7A1 mRNA; PHHs of the B-CLEAR experiment (FIG. 7B)) | human ABCB11 expression (human ABCB11 mRNA [1]; second study, 10 mg/CO-12367 SC on Days 0 and 7) | serum bile acid levels (bile acids; second study, liver-humanized FRG knockout mice (FIG. 15B)) | mouse Abcb11 expression (mouse Abcb11 mRNA)
1 | CO-3986: ASO targeting paRNA RR63 of human ABCB11 (antisense eT*eG*eT*eT*eT*eT*eG*e[5mC]*eT*eT*eG*eG*eT*e[5mC]*eA*eA*eG*eA*eG*eG) | increased human ABCB11 expression | reduced intracellular and extracellular bile acid levels | increased | increased ABCB11 expression | approximately 1.5 fold | dose-dependent increase | 1.27 fold change | increased efflux of bile acid | decreased ratio of liver bile acid (BA) to serum BA | lower levels of intracellular bile acids | increased expression of CYP7A1 mRNA in a dose-dependent manner | upregulated |  |  | 
2 | CO-12367: GalNAc3 conjugate counterpart of CO-11202, dosed SC in liver-humanized mice (antisense eT*eG*eTeT*eT*eT*eG*e[5mC]eT*eT*eG*eG*eTe[5mC]*eA*eA*eG*eAeG*eG-{TEG}) |  |  |  |  |  |  |  |  |  |  |  |  | increased human ABCB11 expression | decrease in serum bile acid levels | without affecting mouse Abcb11 expression
